How the values were obtained:
[1] = tested on: collagen-induced arthritis (CIA) mouse model; assay: Prophylactic effect in collagen-induced arthritis (CIA) mouse model; format: in vivo; conditions: 100 mg/kg and 500 mg/kg oral, 4 weeks
Method: In order to examine prophylactic effects of 3′-sialyllactose during development of arthritis, collagen-induced arthritis (CIA) mouse model was orally administered with 3′-sialyllactose three times a week for 4 weeks at various concentrations (100 mg/kg and 500 mg/kg). In detail, the mouse models immunized day 1 and day 21 were orally administered with 3′-sialyllactose every other days for 4 weeks after second immunization. Control groups were orally administered with PBS, lactose, or sialic acid.

[2] = tested on: synovial tissues of ankle and knee joints; assay: Staining of ankle and knee joints in rheumatoid arthritis mice (FLS and immune cell proliferation); format: in vivo, mouse
mouse FLS [3] = assay: WST-1 assay on mouse FLS; format: cell-based
Method: (§1) Anti-chemokine and anti-inflammatory effects of 3′-sialyllactose were examined. First, purity of mouse FLS was examined by FACS analysis, and then no effects of 3′-sialyllactose on FLS proliferation and cytotoxicity were examined by WST-1 assay (see FIGS. 14A-A to 14A-C). […] Therefore, in a subsequent in vitro experiment, 3′-sialyllactose was used at a concentration of 0 μM to 250 μM. In order to examine effects of 3′-sialyllactose on IL-1β-, IL-6-, IL-17-, and TNF-α-induced chemokines (e.g., CCL2, CCL5, CCL7, CXCL1, CXCL2, and CXCL5), pro-inflammatory cytokines (IL-1, IL-6, and TNF-α), and COX2 expression, IL-1β-, IL-6-, IL-17-, and TNF-α-stimulated human RA-FLS and mouse FLS were treated with 3′-sialyllactose (100 μM or 250 μM) for 24 hrs.

chondrocytes = assay: Cytotoxicity of sialyllactose on chondrocytes (EZ-Cytox cell viability assay); format: cell-based, mouse; conditions: 0 μM, 10 μM, 50 μM, 100 μM, or 250 μM, 24 hrs
Method: Chondrocytes were obtained from cartilage tissues derived from femoral heads, femoral condyles, and tibial plateaus of normal mouse at 5 days after birth. The obtained chondrocytes were cultured in DMEM medium (Gibco, USA) containing 10% (v/v) fetal bovine serum (Gibco, USA), 50 μg/ml of streptomycin (Sigma-Aldrich, USA) and 50 unit/ml of penicillin (Sigma-Aldrich, USA).
In order to confirm that 3′- or 6′-sialyllactose has no cytotoxicity on chondrocytes, chondrocytes were cultured in a 96-well culture plate at a density of 9×10^3 cells/well, and then treated with 3′- or 6′-sialyllactose (Genechem Inc., Daejeon, Korea) at a concentration of 0 μM, 10 μM, 50 μM, 100 μM, or 250 μM, followed by incubation in a 5% CO2 incubator at 37° C. for 24 hrs. Cytotoxicity of 3′- or 6′-sialyllactose on chondrocytes was confirmed by measuring absorbance at 450 nm using an EZ-Cytox Cell viability assay kit (DoGen, Korea).

human RA-FLS = assay: Chemokine, pro-inflammatory cytokine and COX2 expression in stimulated human RA-FLS; format: cell-based; conditions: IL-1β-, IL-6-, IL-17-, and TNF-α-stimulated human RA-FLS; 100 μM or 250 μM, 24 hrs
Method: as §1

[4] = tested on: mouse models with rheumatoid arthritis; assay: Therapeutic effect in mice with arthritis; format: in vivo; conditions: 500 mg/kg oral every other day for 2 weeks
Method: Next, in order to examine therapeutic effects of 3′-sialyllactose, mice with arthritis were orally administered with 3′-sialyllactose. In detail, 8-week-old DBA mice were immunized day 0 and day 21, and then orally administered with 500 mg/kg of 3′-sialyllactose every other days for 2 weeks. Control groups were administered with lactose (250 mg/kg), sialic acid (250 mg/kg), or MTX (1 mg/kg).

[5] = tested on: type II collagen (Col2a1); assay: Col2a1 expression in chondrocytes (qRT-PCR, Western blotting); format: cell-based, mouse; conditions: for Col2a1 expression in chondrocytes: 0 to 250 μM, 36 hrs; for Col2a1 expression suppressed by IL-1β in chondrocytes: 5 ng/ml of IL-1β
Method: In order to examine effects of 3′- or 6′-sialyllactose on cartilage formation and regeneration, the chondrocytes obtained in Example 1 were incubated for 36 hrs and then treated with 3′- or 6′-sialyllactose at a concentration of 0 μM, 10 μM, 50 μM, 100 μM, or 250 μM, followed by further incubation for 36 hrs.
Next, in order to perform qRT-PCR, RNA was extracted from the chondrocytes using a TRI reagent (Molecular Research Center Inc.), and cDNA obtained by reverse transcription of RNA was amplified by PCR using primers of SEQ ID NOS: 1 and 2 under condition of annealing temperature of 55° C. to examine expression of type II collagen (Col2a1, 173 bp) which is essential for cartilage formation. As a control group, Gapdh (450 bp, annealing temperature of 58° C.) was examined by using primers of SEQ ID NOS: 3 and 4.
Further, a whole cell lysate was extracted from the chondrocytes using a lysis buffer (150 mM NaCl, 1% NP-40, 50 mM Tris, 5 mM NaF) containing protease and phosphatase inhibitor cocktails (Roche), and Col2a1 expression in the cells was examined. Western blotting was performed using anti-Col2a1 antibody (Millipore) and anti-Erk antibody (Cell signaling), and thickness and concentration of Western blot bands were measured by a computer program and relative values thereof were determined by densitometry (FIGS. 4A and 4B).
IL-1β is a representative inflammatory cytokine inhibiting Col2a1 expression in chondrocytes. Chondrocytes were incubated for 36 hrs, and then treated with 5 ng/ml of IL-1β (GeneScript, USA) for 24 hrs to confirm that Col2a1 expression was decreased by IL-1β.
In order to examine whether the decreased Col2a1 expression is increased again in chondrocytes by 3′- or 6′-sialyllactose, qRT-PCR and Western blotting were performed in the same manner as in Example 2-1.

[6] = tested on: atopic dermatitis mouse model; assay: Atopic dermatitis mouse model, oral administration; format: in vivo; conditions: 100 mg/kg or 500 mg/kg oral
Method: In order to examine inhibitory effect of 3′-sialyllactose on atopic dermatitis, ear thickness of atopic dermatitis mouse model was examined at 28 days after oral administration of 100 mg/kg or 500 mg/kg of 3′-sialyllactose. Further, the left ear skin of the mouse was cut into thin sections, stained with hematoxylin and eosin (H&E), and stained with toluidine blue.

Sox-9 = Sox-9 reporter gene luciferase activity in chondrocytes; format: cell-based, mouse; conditions: co-treated with 5 ng/ml IL-1β and 0 to 250 μM for 24 hrs
Method: A Sox-9 reporter gene was prepared by inserting 48-bp Sox9 binding site in the first intron of human Col2a1 gene into the upstream of SV40 promoter in pGL3 vector (Zhou G et al., J Biol Chem 1998, 12, 14989-97).
1 μg of the Sox-9 reporter gene was transfected into chondrocytes using lipofectamine 2000 (Invitrogen) for 3 hrs. The transfected cells were co-treated with 5 ng/ml interleukin 1 beta (IL-1β) and 0 μM, 10 μM, 50 μM, 100 μM, or 250 μM of 3′- or 6′-sialyllactose for 24 hrs, and then chondrocytes were recovered to examine Sox-9 activity by luciferase activity.

[7] = tested on: extracellular-signal regulated kinase (Erk); assay: Erk phosphorylation in IL-1β-treated chondrocytes (Western blotting, densitometry); format: cell-based, mouse; conditions: 5 ng/ml of IL-1β, 0 μM, 50 μM, 100 μM, or 250 μM
Method: Chondrocytes of mouse knee joint were treated with 5 ng/ml of IL-1β for 10 min to examine activation of extracellular-signal regulated kinase (Erk) through Erk phosphorylation.
Chondrocytes were co-treated with 5 ng/ml of IL-1β and 0 μM, 50 μM, 100 μM, or 250 μM of 3′-sialyllactose, and Erk phosphorylation increased by IL-1β was confirmed to be decreased by 3′-sialyllactose (FIG. 8).

[8] = tested on: DMM-induced osteoarthritis mouse model; assay: DMM-induced osteoarthritis mouse model, oral administration; format: in vivo
Method: All animal experiments were approved by the Animal Care and Use Committee of the University of Ajou. For osteoarthritis models, 8-week-old male C57BL/6 mice were subjected to destabilization of the medial meniscus (DMM) surgery. Mice knee joints were processed for histological analysis 10 weeks after surgery. In detail, the experimental mice also received gavage feeding of PBS containing 3′-sialyllactose (100 mg/Kg) starting at 2 weeks prior to DMM, and oral feeding on every other day during 4 weeks after surgery, and performed three times a week for total 6 weeks until the end of the experiment. Then, the mice were sacrificed. Control mice were administered with PBS in the same manner.
Knee joints of the mice sacrificed in Example 6-1 were fixed in 4% paraformaldehyde, treated with 0.5 M EDTA (pH 8.0) for 2 weeks, and embedded in paraffin. The paraffin blocks were sectioned at a thickness of 5 μm and serial-sectioned at 40-μm intervals. The paraffin sections were deparaffinized in xylene and hydrated with graded ethanol. Cartilage destruction was detected by Safranin-O staining and scored using the Osteoarthritis Research Society International (OARSI) grading system. Mmp3 (ab52915), Mmp13 (ab51072), Cox2 (SC-1745), pErk ((#9101), IjB (9242), Sox9 (NBP2-24659; Novus, Littleton, USA) and Col2a1 (MAB8887) were immunostained as previously described.

Mmp13 = Mmp13 expression in IL-1β-treated chondrocytes (qRT-PCR, Western blotting); format: cell-based, mouse; conditions: 5 ng/ml of IL-1β, 0 to 250 μM, 24 hrs; concentration-dependent
Method: (§2) IL-1β is a representative inflammatory cytokine that decreases Col2a1 essential for cartilage formation in chondrocytes and also promotes articular inflammation and cartilage tissue destruction. Chondrocytes were treated with 5 ng/ml of IL-1β by time, and then qRT-PCR was performed using conditions and primers of the following Table 1 according to the method of Example 2-1 to examine inhibition of Mmp3 and Mmp13 expression.
(§3) Secretory proteins such as Mmp3 and Mmp13 were allowed to react at 0° C. for 20 min after reacting 900 μl of serum-free medium (conditioned medium) with 100 μl of trichloroacetic acid (TCA). Next, a supernatant was discarded by centrifugation at 12,000 rpm and 4° C. for 10 min, and then reacted with 500 μl of 100% cold acetone at […] for 1 hr. The sample reacting with 100% acetone was centrifuged to discard a supernatant, and proteins were finally precipitated and detected. Western blotting was performed using anti-Mmp3 antibody (Abcam) and anti-Mmp13 antibody (Abcam), and thickness and concentration of Western blot bands were measured by a computer program and relative values thereof were determined by densitometry.

Mmp3 = Mmp3 expression in IL-1β-treated chondrocytes (qRT-PCR, Western blotting); format: cell-based, mouse; conditions: 5 ng/ml of IL-1β, 0 to 250 μM, 24 hrs; concentration-dependent
Method: as §2, §3

mouse FLS [9] = assay: Chemokine, pro-inflammatory cytokine and COX2 expression in stimulated mouse FLS; format: cell-based; conditions: IL-1β-, IL-6-, IL-17-, and TNF-α-stimulated mouse FLS; 100 μM or 250 μM, 24 hrs
Method: as §1

Mmp3, Mmp13, and COX2 = assay: Mmp3, Mmp13 and COX2 expression in IL-1β-treated mouse FLS; format: cell-based
Method: as §1
FIGS. 14A-A and 14A-B show FACS results of analyzing marker expression on the FLS surfaces in a mouse according to passages (FIG. 14A-A: CD90.2; FIG. 14A-B: CD14), and a graph of cytotoxicity confirmed by WST-1 assay (FIG. 14A-C), and FIG. 14B is a graph showing Mmp3, Mmp13, and COX2 expression levels according to lactose, sialic acid, and 3′-sialyllactose in IL-1β-treated mouse FLS.

SMILES: CC(=O)N[C@H]1C([C@H](O)[C@H](O)CO)O[C@@](O[C@@H]2C(O)[C@H](O[C@@H]3C(CO)OC(O)C(O)[C@H]3O)OC(CO)[C@@H]2O)(C(=O)[O-])C[C@H]1O.[Na+] (stereo partly drawn) [3′-sialyllactose]
- expression of pro-inflammatory cytokines (mouse sera) [1]: decreased
- swelling of CIA mouse model [1]: alleviated
- proliferation of macrophages by rheumatoid arthritis ([2]; ankle and knee synovial tissue, anti-CD68 staining): significantly decreased
- proliferation of FLS by rheumatoid arthritis ([2]; ankle and knee synovial tissue, anti-CD90.2 staining): significantly decreased
- proliferation of neutrophils by rheumatoid arthritis ([2]; ankle and knee synovial tissue, elastase staining): significantly decreased
- synovial hyperplasia and infiltration of mononuclear cells into the ankle and knee joints ([2]; hematoxylin and Safranin-O staining): inhibit
- FLS proliferation and cytotoxicity (mouse FLS [3]): no effects
- cytotoxicity on chondrocytes (chondrocytes): did not show cytotoxicity
- expression levels of chemokines, pro-inflammatory cytokines, and COX2 (human RA-FLS): remarkably decreased
- expression of pro-inflammatory cytokines (mouse sera) [4]: decreased
- swelling [4]: alleviated
- Col2a1 expression in chondrocytes [5]: increased
- Col2a1 expression suppressed by IL-1β in chondrocytes [5]: gradually increased
- mouse ear thickness ([6]; 28 days): decreased
- ear dermal thickness ([6]; concentration-dependent): decreased
- ear epidermal thickness ([6]; concentration-dependent): decreased
- number of mast cells in the ear skin (toluidine blue staining) ([6]; concentration-dependent): decreased
- Sox-9 activity decreased by IL-1β (Sox-9): restored
- Erk phosphorylation increased by IL-1β [7]: decreased
- OARSI scores (cartilage destruction) compared with control mouse ([8]; 100 mg/Kg gavage, 10 weeks after DMM surgery): remarkably low
- Cox2 expression (immunohistochemical staining) ([8]; 100 mg/Kg oral, DMM model): decreased
- Mmp3 expression (immunohistochemical staining) ([8]; 100 mg/Kg oral, DMM model): decreased
- Mmp13 expression (immunohistochemical staining) ([8]; 100 mg/Kg oral, DMM model): decreased
- Mmp13 expression increased by IL-1β in chondrocytes (Mmp13): decreased
- Mmp3 expression increased by IL-1β in chondrocytes (Mmp3): decreased
- expression levels of chemokines, pro-inflammatory cytokines, and COX2 (mouse FLS [9]): remarkably decreased

SMILES: OC[C@H]1O[C@@H](O[C@H]2[C@H](O)[C@@H](O)C(O)O[C@@H]2CO)[C@H](O)[C@@H](O)[C@H]1O (stereo partly drawn) [lactose]
- Mmp3, Mmp13, and COX2 expression levels, control groups for 3′-sialyllactose (Mmp3, Mmp13, and COX2): no significant difference

SMILES: CC(=O)N[C@H]1C([C@H](O)[C@H](O)CO)O[C@@](OCC2O[C@@H](O[C@@H]3C(CO)OC(O)C(O)[C@H]3O)C(O)[C@@H](O)[C@H]2O)(C(=O)[O-])C[C@H]1O.[Na+] (stereo partly drawn) [6′-sialyllactose]
- cytotoxicity on chondrocytes (chondrocytes): did not show cytotoxicity
- Col2a1 expression in chondrocytes [5]: increased
- Col2a1 expression suppressed by IL-1β in chondrocytes [5]: gradually increased
- Sox-9 activity decreased by IL-1β (Sox-9): restored
- Mmp13 expression increased by IL-1β in chondrocytes (Mmp13): decreased
- Mmp3 expression increased by IL-1β in chondrocytes (Mmp3): decreased
